Measurements reported in paper PMC9921896 (Molecules, 2023).

Tests used:
[1] = Substrate depletion assay in human liver microsomes (HLM); assay type: in vitro ADME; conditions: pooled human liver microsomes, pH 7.4, test conc. 1.0E-07 M (Table S4)
Description: Microsomal stability was determined for the TbB ligands by monitoring the presence of compound after incubation in CPHH and HLM, as shown in Figure 7 and Figure S18 of the Supporting Information. […] Such an observation with NCEs is common because, with HLM, NADPH is used as a cofactor, thereby focusing mainly on phase 1 oxidation pathways such as P450 metabolism. Although additional enzymes, such as UDP-glucuronosyltransferase (UGTs), are present in HLM, the lack of the associated necessary cofactors prevents them from being functionally active (e.g., uridine diphosphate glucuronic acid (UDPGA)). In contrast, all the three TbB ligands metabolized in cryopreserved hepatocytes (Figure 7). […] The reason could be that hepatocytes have all the necessary enzymes and cofactors for the metabolic processes. Since they contain the complete set of oxidative/reductive, hydrolytic, and conjugative drug metabolizing enzymes found in the liver, they are regarded as the gold standard. Therefore, they are preferred in vitro options for expressing metabolic stability as substrate depletion, total metabolic clearance, and T 1/2 [29].
From the plot shown in Figure S18 of the Supporting Information, it can be inferred that the TbB ligands undergo slow biotransformation in HLM. Such high metabolic stability may result in drug interactions leading to toxicity of the parent compound. On the contrary, TbB ligands are undergoing rapid biotransformation in CPHH (Figure 7), and this may lead to generation of metabolites that are either toxic, active, or nonactive. Metabolic stability is typically expressed by in vitro half-life T 1/2 and intrinsic clearance (CLint) terms. Intrinsic clearance (CLint) is measured using the substrate depletion method. It describes the maximum liver (microsomal proteins or hepatocytes) activity towards a compound not affected by other physiological factors such as hepatic blood flow and drug binding within the blood matrix. T 1/2 is used to express the time for the 50% disappearance of the parent compound. A possible explanation for the difference in metabolic stability might be that the TbB ligands bind to microsomes during incubation. This can result in decreased free TbB ligand levels available to interact with metabolizing enzymes, reducing apparent intrinsic clearance values.
By preincubating a test substance for 5 minutes in phosphate buffer (pH 7.4) at 37 °C in shaking water bath, the stability of the test substance was examined in pooled HLM. After NADPH-generating systems addition, the reaction gets initiated and post incubation for 0, 15, 30, 45, and 60 min, the reaction is terminated with addition of acetonitrile/methanol to the incubation mixture. Supernatant obtained after mixing and centrifuging the sample is analyzed by HPLC-MS/MS. Microsomal protein for final use is at 0.1 mg/mL concentration. Four compounds, namely, propranolol and imipramine, known to be relatively stable, and verapamil and terfenadine, known as readily metabolizing in HLM, were included in each assay. Post HPLC-MS/MS of the samples, data are analyzed by considering test compounds peak area at each time point to time zero. Assuming the reaction to follow first-order kinetics, the slope of the initial linear range of the logarithmic curve of remaining compound (%) vs. time is considered to calculate the half-life. Additionally, the half-life is utilized to calculate the intrinsic clearance (CLint) as shown in the following equation. CLint(μL/min/mgprotein)=0.693/T1/2×proteinconc.

CYP2C9 = biological target: T1, CYP2C9 (Homo sapiens, UniProt P11712); experiment: Single concentration Kobs assay (time-dependent inhibition) in HLM; assay type: biochemical; conditions: for Kobs 2C9: HLM, 0.02 min^−1 indicates TD inhibition potential; for Kobs 2C9 / inhibition at 30 min: single concentration; for Single concentration Kobs assay (risk bin) 2C9: TD inhibition class from Kobs vs 0.02 min^−1 (Table 5 traffic lights); for inhibition at 30 min: human, human liver microsomes, significant if >50%, read-out: 2C9 R_Inh% (reversible inhibition)
T1 construct: Using HLM as the enzyme source; from tissue; host or cells: human liver microsomes
From the text: CYP inhibition evaluation is typically performed by either IC50 at single-point or IC50 Shift or abbreviated assay such as the first-order inactivity rate constant (K obs ) at single concentration.
This method yielded good correlations between the percent inhibition at 10 or 25 μ M and kinact/KI. Evaluation of TD inhibition at single concentration has been implemented in several drug discovery programs. […] Therefore, in this study, a single K obs approach has been utilized to understand the TD inhibition potential of TbB ligands. Ideally, the inhibition of CYPs can be reversible or irreversible. The data obtained from single-concentration K obs studies were analyzed to understand the same. From the data presented in Table 4, the TbB ligands have values less than 50% for reversible inhibition (R_Inh). As the qualified % reversible inhibition is considered significant if >50%, no significant reversible inhibition is observed for TbB ligands. Knowledge about enzyme inactivation half-life (E½) is also equally important as it would provide insight into the TD inhibition of a compound. E½ can be used to bin the compounds as positive or negative TD inhibitors if the values are <28 or >28, respectively. The TbB ligand 223-2 is observed to be a weak positive TD inhibitor of 1A2 and is negative TD inhibitor to the other six CYP isoforms.
The time-dependent inhibition (TDI) potential of test compounds against CYP1A2, 2B6, 2C8, 2C9, 2C19, 2D6, 3A4/5 isoforms were determined using Human liver microsomes. Assay is performed in 96-deep well plate format (n = 1). Positive controls and DMSO as negative control in each assay. To obtain 100 μ M working stock solution, 1 μ L of blank DMSO/test/reference compounds to 100 μ L 1× DPBS buffer was added and labeled as dilution plate. To the primary incubation plate, 45 μ L of primary mix was dispensed to the desired wells containing 25 μ L HLM, 10 μ L MgCl2, and 10 μ L of NADPH working solutions. To the secondary incubation plate, 95 μ L of secondary mix was dispensed to the desired wells containing 20 μ L MgCl2, 20 μ L NADPH, 10 μ L respective substrates for CYP isoform working solutions and 45 μ L 1× DPBS buffer. […] Pre-incubated the dilution plate along with primary incubation plate at 37 °C for 15 min at 450 rpm. The reaction was carried out in triplicate. After the incubation, the reaction was quenched by adding 150 μ L ice cold stop solution to all the wells followed by centrifuging the samples at 4000 rpm, 4 °C for 15 min. The supernatant samples were then transferred into vials for LC-MS/MS analysis. […]

CYP2B6 = biological target: T2, CYP2B6 (Homo sapiens, UniProt P20813); experiment: as above; assay type: biochemical; conditions: human liver microsomes, significant if >50%, read-out: 2B6 R_Inh% (reversible inhibition)
T2 construct: Using HLM as the enzyme source; from tissue; host or cells: human liver microsomes
T2 sequence (P20813 1-491): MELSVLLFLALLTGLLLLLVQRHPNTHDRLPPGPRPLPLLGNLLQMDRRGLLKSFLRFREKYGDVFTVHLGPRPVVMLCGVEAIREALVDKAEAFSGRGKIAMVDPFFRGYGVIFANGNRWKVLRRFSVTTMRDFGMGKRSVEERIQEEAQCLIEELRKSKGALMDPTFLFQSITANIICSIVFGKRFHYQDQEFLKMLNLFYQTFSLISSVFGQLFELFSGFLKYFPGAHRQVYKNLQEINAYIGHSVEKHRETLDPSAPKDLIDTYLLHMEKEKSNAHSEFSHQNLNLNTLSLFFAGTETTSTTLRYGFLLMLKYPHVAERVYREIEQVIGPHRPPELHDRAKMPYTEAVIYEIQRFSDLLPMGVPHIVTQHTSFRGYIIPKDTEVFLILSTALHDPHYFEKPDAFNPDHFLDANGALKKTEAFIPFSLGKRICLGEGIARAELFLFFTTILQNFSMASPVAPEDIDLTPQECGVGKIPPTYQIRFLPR

T1 sequence (P11712 whole entry): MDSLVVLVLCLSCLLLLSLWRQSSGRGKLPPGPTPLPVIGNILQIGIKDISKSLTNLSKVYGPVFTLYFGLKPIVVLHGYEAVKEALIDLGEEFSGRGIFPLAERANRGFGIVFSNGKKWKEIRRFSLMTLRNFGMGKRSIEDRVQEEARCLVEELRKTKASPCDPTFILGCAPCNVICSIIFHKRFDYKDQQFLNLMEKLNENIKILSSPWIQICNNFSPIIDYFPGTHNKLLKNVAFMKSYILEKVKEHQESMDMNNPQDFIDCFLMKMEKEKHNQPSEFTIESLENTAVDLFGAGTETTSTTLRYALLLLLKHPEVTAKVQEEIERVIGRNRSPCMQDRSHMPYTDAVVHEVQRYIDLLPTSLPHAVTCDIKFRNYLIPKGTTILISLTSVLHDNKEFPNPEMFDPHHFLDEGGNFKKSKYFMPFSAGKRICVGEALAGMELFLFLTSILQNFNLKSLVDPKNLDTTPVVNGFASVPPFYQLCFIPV

Compound	half-life at 100 nM [1] [h]	microsomal CLint at 100 nM [1] [µL/min/mg]	Kobs 2C9 (CYP2C9) [min⁻¹]	Single concentration Kobs assay (risk bin) 2C9 (CYP2C9)	inhibition at 30 min (CYP2C9) [%]	inhibition at 30 min (CYP2B6) [%]	Kobs 2C9 (CYP2C9; listed as 223-03) [min⁻¹]
COc1cc(-c2nnn(-c3cc(OC)c(O)c(OC)c3)n2)cc(OC)c1O [223-2]	13.5	< 116	0.005304	negative inhibitor	< 50	< 50	–
Cc1cc(-c2nnn(-c3cc(C)c(O)c(C)c3)n2)cc(C)c1O [223-3]	1.25	< 116	0.0748	positive inhibitor	< 50	< 50	0.07477
Oc1ccc(-c2nnn(-c3ccc(O)cc3)n2)cc1 [223-10]	3	< 116	–	positive inhibitor	< 50	< 50	–
